In data set [1] the target is T1, M4 receptor (Homo sapiens, UniProt P08173).
T1 construct: expressed in transfected cells
T1 sequence (P08173 1-479): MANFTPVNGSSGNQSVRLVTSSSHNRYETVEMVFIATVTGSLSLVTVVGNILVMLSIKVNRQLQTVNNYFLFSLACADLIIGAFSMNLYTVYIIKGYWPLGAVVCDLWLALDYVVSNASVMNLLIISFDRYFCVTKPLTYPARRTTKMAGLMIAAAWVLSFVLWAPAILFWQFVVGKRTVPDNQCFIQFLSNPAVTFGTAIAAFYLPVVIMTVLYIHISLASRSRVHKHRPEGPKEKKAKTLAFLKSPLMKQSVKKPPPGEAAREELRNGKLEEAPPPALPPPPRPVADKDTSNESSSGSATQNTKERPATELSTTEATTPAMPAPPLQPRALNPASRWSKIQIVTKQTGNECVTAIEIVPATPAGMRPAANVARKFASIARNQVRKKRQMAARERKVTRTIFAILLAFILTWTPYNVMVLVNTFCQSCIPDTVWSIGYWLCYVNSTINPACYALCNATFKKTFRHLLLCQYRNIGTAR
Briefly: Calcium flux (FLIPR) potentiation assay in cells stably expressing M4 receptor. The format is cell-based. An excerpt: Test example 1. Determination of the effect of the compounds of the present invention on calcium current in cells stably expressing M1-M5 receptors
To detect the potentiating effect of compounds on calcium flux activity in CHO-K1/human M1/3/5 and CHO-K1/Gα15 M2/4 cells.
384-well assay plate, 384-well plate, FLIPR Tip, FLIPR Penta plate reader, Dispendix non-contact nanoliter dispensing system (liquid handling workstation), liquid handler.
Ham's F-12 Nutrient Mix, foetal bovine serum, P/S (Gibco: 15140122), HBSS (Gibco: 14025076), HEPES (Gibco: 15630080), FLIPR calcium 6 assay kit (Molecular Devices: R8190), Probenecid (PBA) (Invitrogen: P36400), Acetylcholine chloride (Sigma: A6625-25G) Complete culture medium: DMEM + 10% FBS + 1X P/S; Cell seeding medium: DMEM + 10% FBS + 1X PS; Assay buffer 1: 1X HBSS + 20 mM HEPES +2.5 mM Probenecid; Assay buffer 2: 1X HBSS + 20 mM HEPES; Cell line: CHO-K1/M1; CHO-K1/M2/Gα15; CHO-K1/M3; CHO-K1/M4/Gα15; CHO-K1/M5.
FLIPR calcium 6 assay kit: Component A was dissolved in Assay buffer 1, and the mixture was shaken for 1-2 min, sub-packaged and stored at -20°C.
• 1) CHO-K1/M1; CHO-K1/M2/Gα15; CHO-K1/M3; CHO-K1/M4/Gα15; and CHO-K1/M5 cell lines were cultured separately in complete culture medium at 37°C, 5% CO2 to 70%-90% confluency. • 2) The cells were digested and resuspended in cell seeding medium, 5,000 cells/well/20 µL were seeded into a 384-well cell culture plate, and the cells were cultured at 37°C, 5% CO2 for 24 hours. • 3) The cell culture plate was taken out of the CO2 incubator and equilibrated at room temperature for 10 minutes. • 4) Component A solution was removed and allowed to equilibrate to room temperature. 20 µL of Component A solution was added to each well of the cell culture plate, and incubated at room temperature in the dark for 1 hour. • 5) Acetylcholine chloride (ACh), a muscarinic receptor agonist, was prepared in Assay buffer 2 at EC20/EC100 concentrations; subsequently, 30 µL of the prepared muscarinic receptor agonist was added to a 384-well agonist plate (PE: 6008590) using a Multidrop Combi; the working solutions of the positive control compound and the test compound were serially diluted at a 3.16-fold gradient and dispensed (450 nL) into a 384-well compound plate (PE: 6008590) using the Dispendix liquid handling workstation; 30 µL of Assay buffer 2 was added to the 384-well compound plate (PE: 6008590) using the Multidrop Combi; the positive control compound and the test compound were diluted to 6X, mixed by shaking, and placed at room temperature until use. • 6) 10 µL of the diluted 6X compound was added to the assay wells of the corresponding 384-well cell plate using the FLIPR Penta, followed by a 2-minute incubation. • 7) 10 µL of the prepared muscarinic receptor agonist was added to the assay wells of the corresponding 384-well cell plate using the FLIPR Penta, with simultaneous data acquisition.
FLIPR Penta was used to read and collect the fluorescence signal value (RFU). The maximum RFU value was used to calculate the percent activation data based on the readings of the Low control (DMSO control group) and High control (ACh EC100) experimental groups {% activation rate = (RFUsample - RFUlow control) / (RFUhigh control - RFUlow control)×100}. The test compound was diluted 3.16X in the reaction system to generate 11 concentration points ranging from 30 µM to […].

The nature of data set [2]: Pharmacokinetic determination in SD rats. The settings on record: rat, in vivo, po, male SD rats, p.o. 5 mg/kg. The protocol:
To investigate the pharmacokinetic behaviours of the example compounds in both plasma and brain of SD rats (test animals) following oral administration at a dose of 5 mg/kg.
2.1 Test drugs: The example compounds of the present invention, made in house.
2.2 Test animals: SD Rat, male.
24 SD Rats, male; p.o. respectively at a dose of 5 mg/kg and an administration volume of 10 mL/kg after the rats were fasted overnight.
Formulation of a drug for oral administration: 0.5% CMC-Na (1% Tween 80).
0.50 g of sodium carboxymethyl cellulose (CMC-Na, viscosity: 800-1200 Cps) was weighed and dissolved in 99 mL of purified water, and 1 ml of Tween 80 was added. The components were mixed thoroughly under stirring to form a clear solution.
The example compound was weighed into a 100 mL glass vial, 80 mL of the solution was added, and the mixture was subjected to ultrasound treatment for 10 minutes to obtain a homogeneous suspension with a concentration of 0.5 mg/mL.
After the test animals were euthanised by CO2, blood samples were collected from the heart and brain tissues were harvested at 0.25 h, 0.5 h, 1 h, 2 h, 4 h, 6 h, 8 h, and 24 h post-dose. Blood was placed in EDTA-2K tubes, and centrifuged at 6000 rpm for 6 min at 4°C to separate the plasma. Brain tissues were rinsed with pre-cold PBS, blotted dry, and weighed. Both plasma and brain samples were stored at -80°C. The animals were fed 4 h after administration.
• 3) 40 uL of plasma sample was precipitated with 160 uL of acetonitrile, mixed, and centrifuged at 3500 × g for 5-20 min. Brain tissues were diluted, homogenised and centrifuged. • 4) 100 uL of the treated supernatant solution was taken for LC/MS/MS analysis to determine the concentration of the test compounds.
• Liquid phase conditions: Shimadzu LC-20AD pump • Mass spectrometry conditions: AB Sciex API 4000 mass spectrometer • Chromatographic column: Phenomenex Gemiu 5 um C18 50 × 4.6 mm • Mobile phase: solution A: 0.1% formic acid in water, solution B: acetonitrile • Flow rate: 0.8 mL/min • Elution time: 0-4.0 min, with eluents as follows:
The main pharmacokinetic parameters were calculated using WinNonlin 8.1.

Setting [3] is: CHO-K1/M4/Gα15 cells, potentiation of acetylcholine (EC20) calcium flux, read-out: M4 FLIPR EC50.

Results on 32 compounds are retold here after patent EP4810493A1, “HETEROCYCLIC CARBONYL DERIVATIVE MODULATOR, PREPARATION METHOD THEREFOR, AND USE THEREOF” (Shanghai Hansoh Biomedical Co., Ltd., priority 2023, dated 2025).

Where two headings read alike, the source gives them in different places.

For `Cc1c2c(c3ccnn3c1C)CN(C(=O)CC1CN(c3ccnc(OC4CC4)c3)C1)C2` [Example 221], in data set [1] (setting [3]), the concentration for a half-maximal effect (EC50) came out at 94.3 nM.

Regarding `CN=S(C)(=O)c1ccc(N2CC(CC(=O)N3Cc4c(C)c(C)n5ncnc5c4C3)C2)cc1` (centres unmarked) [Example 38], the EC50 in data set [1] (setting [3]) worked out at 37.9 nM.

As for `Cc1c2c(c3nc(N)nn3c1C)CN(C(=O)CC1CN(c3ccnc(C(F)(F)F)c3)C1)C2` [Example 145], in data set [1] (setting [3]), the concentration giving a half-maximal response (EC50) turned out to be 27.4 nM.

On to `[2H]C([2H])([2H])Oc1cc(N2CC(OC(=O)N3Cc4c(C)c(C)n5ncnc5c4C3)C2)ccn1` [Example 247], for which the EC50 in data set [1] (setting [3]) was found to be 96.3 nM.

Turning to `Cc1c2c(c3ncnn3c1C)CN(C(=O)CC1CN(c3ccc(C4CC4)nc3)C1)C2` [Example 312], in data set [1] (setting [3]), the concentration for a half-maximal effect (EC50) was determined as 15.1 nM.

`Cc1cn2nc(N3CC(OC(=O)N4Cc5c(C)c(C)n6nccc6c5C4)C3)ccc2n1` [Example 200]: the EC50 in data set [1] (setting [3]) turned out to be 39.4 nM.

Turning to `Cc1c2c(c3ncnn3c1C)CN(C(=O)CC1CN(c3ccnc(OCC(F)F)c3)C1)C2` [Example 185], in data set [1] (setting [3]), the EC50 worked out at 11.1 nM.

Take `Cc1c2c(c3ncnn3c1C)CN(C(=O)C1CC(Nc3ncc(C(F)(F)F)cn3)C1)C2` (centres unmarked) [Example 299, (5,6-Dimethyl-7,9-dihydro-8H-pyrrolo[3,4-c][1,2,4]triazolo[1,5-a]pyridin-8-yl)(3-((5-(trifluoromethyl)pyrimidin-2-yl)amino)cyclobutyl)methanone]: the EC50 in data set [1] (setting [3]) turned out to be 26.8 nM.

In the case of `Cc1cn2nc(N3CC(CC(=O)N4Cc5c(C)c(C)n6nccc6c5C4)C3)ccc2n1` [Example 201], the EC50 in data set [1] (setting [3]) came out at 56.4 nM.

Turning to `Cc1c2c(c3ncnn3c1C)CN(C(=O)CC1CN(c3ncc(C4CC(F)(F)C4)cn3)C1)C2` [Example 320], the concentration giving a half-maximal response (EC50) in data set [1] (setting [3]) was 34.1 nM.

Consider `Cc1c2c(c3nccn3c1C)CN(C(=O)CC1CN(c3ccnc(C(F)(F)F)c3)C1)C2` [Example 60, 1-(5,6-Dimethyl-7,9-dihydro-8H-imidazo[1,2-a]pyrrolo[3,4-c]pyridin-8-yl)-2-(1-(2-(trifluoromethyl)pyridin-4-yl)azetidin-3-yl)ethan-1-one], for which the concentration giving a half-maximal response (EC50) in data set [1] (setting [3]) came to 8.8 nM.

Turning to `Cc1c2c(c3ccnn3c1C)CN(C(=O)CC1CN(c3ccc4nc(C(F)(F)F)cn4n3)C1)C2` [Example 227], in data set [1] (setting [3]), the concentration giving a half-maximal response (EC50) is 90.4 nM.

As for `Cc1c2c(c3ncnn3c1C)CN(C(=O)C1CCN(c3ccncn3)C1)C2` (centres unmarked) [Example 34], in data set [1] (setting [3]), the EC50 is 40.4 nM.

`Cc1c2c(c3ncnn3c1C)CN(C(=O)OC1CN(c3ccc4nc(CF)cn4n3)C1)C2` [Example 190]: in data set [1] (setting [3]), the concentration giving a half-maximal response (EC50) stood at 73.2 nM.

Regarding `COc1cc(N2CC(CC(=O)N3Cc4c(C)c(C)n5nccc5c4C3)C2)c(F)cn1` [Example 220], the 50% effective concentration (EC50) in data set [1] (setting [3]) amounted to 53.5 nM.

For the compound `Cc1c2c(c3ccnn3c1C)CN(C(=O)CC1CN(c3ccnc(OCC(F)F)c3)C1)C2` [Example 203], the EC50 in data set [1] (setting [3]) is 90 nM.

For the compound `Cc1c2c(c3ncnn3c1C)CN(C(=O)CC1CN(c3ccc4c(cnn4C4CC4)c3)C1)C2` [Example 306], in data set [1] (setting [3]), the EC50 worked out at 11.1 nM.

For `Cc1c2c(c3nnnn3c1C)CN(C(=O)OC1CN(c3ccnc(OC(F)F)c3)C1)C2` [Example 179], the concentration for a half-maximal effect (EC50) in data set [1] (setting [3]) amounted to 57.1 nM.

With `CCc1ccc(N2CC(CC(=O)N3Cc4c(C)c(C)n5ncnc5c4C3)C2)cn1` [Example 313], the 50% effective concentration (EC50) in data set [1] (setting [3]) was determined as 10.4 nM.

Regarding `Cc1c2c(c3ncnn3c1C)CN(C(=O)CC1CN(c3ccc(OC4CC4)nc3)C1)C2` [Example 303], in data set [1] (setting [3]), the concentration for a half-maximal effect (EC50) came out at 13.8 nM.

`Cc1c2c(c3ncnn3c1C)CN(C(=O)CC1CN(c3cc(NC(C)C)ncn3)C1)C2` [Example 54]: the EC50 in data set [1] (setting [3]) worked out at 9.6 nM.

For `Cc1nc2c3c(c(C)c(C)n2n1)CN(C(=O)CC1CN(c2ccnc(C(F)(F)F)c2)C1)C3` [Example 57], the concentration giving a half-maximal response (EC50) in data set [1] (setting [3]) stood at 18 nM.

`Cc1c2c(c3ncnn3c1C)CN(C(=O)CC1CN(c3ccnc(C(F)(F)F)c3)C1)C2` [Example 20, 1-(5,6-Dimethyl-7,9-dihydro-8H-pyrrolo[3,4-c][1,2,4]triazolo[1,5-a]pyridin-8-yl)-2-(1-(2-(trifluoromethyl)pyridin-4-yl)azetidin-3-yl)ethan-1-one]: in data set [1] (setting [3]), the EC50 amounted to 14.7 nM.

Consider `Cc1c2c(c3nccn3c1C)CN(C(=O)CC1CN(c3ccnc(C(F)F)c3)C1)C2` [Example 101], for which the EC50 in data set [1] (setting [3]) stood at 33.5 nM.

With `Cc1cn2cc(N3CC(OC(=O)N4Cc5c(C)c(C)n6ncnc6c5C4)C3)ccc2n1` [Example 178], the EC50 in data set [1] (setting [3]) was determined as 83.8 nM.

Take `Cc1c2c(c3ncnn3c1C)CN(C(=O)CC1CN(c3ccc(OC(F)F)nc3)C1)C2` [Example 305]: the half-maximal effective concentration (EC50) in data set [1] (setting [3]) turned out to be 6.8 nM.

As to `Cc1c2c(c3ncnn3c1C)CN(C(=O)CC1CN(c3ncc(F)cn3)C1)C2` [Example 300], the concentration for a half-maximal effect (EC50) in data set [1] (setting [3]) stood at 35.7 nM.

Take `Cc1c2c(c3ncnn3c1C)CN(C(=O)CC1CN(c3cnc4c(c3)CCCO4)C1)C2` [Example 302]: the EC50 in data set [1] (setting [3]) is 23.2 nM.

Take `Cc1c2c(c3ncnn3c1C)CN(C(=O)OC1CN(c3cc(Cl)ncc3Cl)C1)C2` [Example 187]: the half-maximal effective concentration (EC50) in data set [1] was determined as 28.2 nM.

Regarding `Cc1nc2c3c(c(C)c(C)n2n1)CN(C(=O)CC1CN(c2ccnc(OC4CC4)c2)C1)C3` [Example 230], in data set [1] (setting [3]), the concentration giving a half-maximal response (EC50) was 16.3 nM.

On to `Cc1c2c(c3nc(C4CC4)nn3c1C)CN(C(=O)CC1CN(c3ccnc(C(F)(F)F)c3)C1)C2` [Example 143], for which the EC50 in data set [1] (setting [3]) came out at 30.9 nM.

Consider `Cc1c2c(c3ccnn3c1C)CN(C(=O)OC1CN(c3ccnc(C(F)F)c3)C1)C2` [Example 142], for which, in data set [2], the total exposure AUC(0-inf) is 9320 ng·h/mL, the peak level (Cmax) was 1380 ng/mL and the time to peak (Tmax) stood at 2 h. The MRT inf in data set [2] (read-out: MRT 0-∞) was 4.4 h.
